From patent publication US20100041647A1, “3-Substituted-[1,2,3]-Benzotriazinone compounds for enhancing glutamatergic synaptic responses” (CORTEX PHARMACEUTICALS, INC., priority 2007, published 2010)

Key:
[1] = system: AMPA receptor; experiment: Patch clamp electrophysiology assay (glutamate-induced whole-cell current in cultured cortical neurons); type: cell-based; details: Concentration at which glutamate induced current is increased by 100%; 500 μM glutamate, rat cortical neurons
Procedure: Cortical cells were prepared from day 18-19 embryonic Sprague-Dawley rats and recorded after 3 days in culture. The extracellular solution (ECS) contained (in mM): NaCl (145), KCl (5.4), HEPES (10), MgCl2 (0.8), CaCl2 (1.8), glucose (10), sucrose (30); pH. 7.4. In order to block the voltage-gated sodium currents, 40 nM TTX was added to the recording solution. The intracellular solution contained (in mM): K-gluconate (140), HEPES (20), EGTA (1.1), phosphocreatine (5), MgATP (3), GTP (0.3), MgCl2 (5), and CaCl2 (0.1); pH: 7.2. All test compound and glutamate solutions were made-up in the extracellular solution.
The whole-cell current was measured with patch-clamp amplifier (Axopatch 200B), filtered at 2 kHz, digitized at 5 kHz and recorded on a PC with pClamp 8. The cells were voltage-clamped at −80 mV. Solutions were applied by DAD-12 system. A baseline response for each cell was recorded using a I s pulse of 500 μM glutamate dissolved in ECS. Responses to test compound were then determined by application of a 10 s pulse of test compound followed by a 1 s pulse of the same concentration of test compound plus 500 μM glutamate and then 10 s of saline. This pulse sequence was repeated until a stable reading was obtained, or until sufficient data points were measured to allow extrapolation to a calculated maximum change.
The mean value of plateau current between 600 ms to 900 ms after application of glutamate or test compound plus glutamate was calculated and used as the parameter to measure the drug effect. The plateau responses in the presence of varying concentrations of test compound were divided by the baseline response in order to calculate the percentage increase. Compounds are deemed active in this test if, at a test concentration of 3 μM or less, they produce a greater than 100% increase in the value of the steady-state current measured due to application of glutamate alone. The concentration at which the glutamate induced current is increased by 100% is commonly referred to as the EC2x value.

[2] = system: AMPA receptors; experiment: Rat hippocampal slice assay (field EPSP in CA1); type: cell-based
Procedure: (§1) In another test, excitatory responses (field EPSPs) were measured in hippocampal slices, which were maintained in a recording chamber continuously perfused with artificial cerebrospinal fluid (ACSF). During a 15-30 minute interval, the perfusion medium was switched to one containing various concentrations of the test compounds. Responses collected immediately before and at the end of drug perfusion were superimposed in order to calculate the percent increase in EPSP amplitude.
The field EPSP (excitatory post-synaptic potential) recorded in field CA1 after stimulation of CA3 axons is known to be mediated by AMPA receptors, which are present in the synapses (Kessler et al., Brain Res. 560: 337-341 (1991)). Drugs that selectively block the receptor selectively block the field EPSP (Muller et al., Science, supra). […] These effects are mirrored in the field EPSP (see, for example, Staubli et al., Psychobiology, supra; Xiao et al., Hippocampus, supra; Staubli et al., Hippocampus 2: 4958 (1992)).
To obtain data for the activity of invention compounds on synaptic responses, a bipolar nichrome stimulating electrode was positioned in the dendritic layer (stratum radiatum) of the hippocampal subfield CA1 close to the border of subfield CA3, as described in Example 30. Current pulses (0.1 msec) through the stimulating electrode activate a population of the Schaffer-commissural (SC) fibers, which arise from neurons in the subdivision CA3 and terminate in synapses on the dendrites of CA1 neurons. Activation of these synapses causes them to release the transmitter glutamate. Glutamate binds to post-synaptic AMPA receptors, which then transiently open an associated ion channel and permit a sodium current to enter the postsynaptic cell. This current results in a voltage in the extracellular space (the field EPSP), which is recorded by a high impedance recording electrode positioned in the middle of the stratum radiatum of CA1.
The intensity of the stimulation current was adjusted to produce half-maximal EPSPs (typically about 1.5-2.0 mV). Paired stimulation pulses were given every 40 sec with an interpulse interval of 200 msec, as described further in Example 30.
as §1, with “Hippocampal slices” for “In another test, excitatory responses (field EPSPs) were measured in hippocampal slices, which”, “During” for “During a”, “intervals,” for “interval,”

[3] = system: AMPA receptor; experiment: In vivo electrophysiology (field EPSP in dentate gyrus of anesthetized animals); design: species or system rat
Procedure: The physiological effects of invention compounds were tested in vivo in anesthetized animals according to the following procedures.
Animals are maintained under anesthesia by phenobarbital administered using a Hamilton syringe pump. Stimulating and recording electrodes are inserted into the perforant path and dentate gyrus of the hippocampus, respectively. Once electrodes are implanted, a stable baseline of evoked responses are elicited using single monophasic pulses (100 μs pulse duration) delivered at 3/min to the stimulating electrode. Field EPSPs are monitored until a stable baseline is achieved (about 20-30 min), after which a solution of test compound in HPCD is injected intraperitoneally and evoked field potentials are recorded. Evoked potentials are recorded for approximately 2 h following drug administration or until the amplitude of the field EPSP returns to baseline. In the latter instance, it is common that an iv administration is also carried out with an appropriate dose of the same test compound.

Row | SMILES | In vitro Patch Clamp Electrophysiology EC2x [1] | % Increase in the amplitude of the field EPSP in the CA1 region of rat hippocampal slice ([2]; @ 3 μM) | % increase in the amplitude of the field EPSP in rat dentate gyrus ([3]; 5 mpk i.v.) | % increase in the amplitude of the field EPSP in rat dentate gyrus ([3]; 5 mpk i.p.) | % Increase in the amplitude of the field EPSP in the CA1 region of rat hippocampal slice ([2]; @ 10 μM)
1 | O=C1c2cc3nnn(C4CC4)c(=O)c3cc2OC2CCCN12 (stereo not drawn) [Example 4, 3-Cyclopropyl-6a,7,8,9-tetrahydro-3H-pyrrolo[2′,1′:2,3][1,3]oxazino[6,5-g][1,2,3]benzotriazine-4,11-dione] | 400 nM | 5% @ 3 μM | 19%^4 | – | –
2 | O=C1c2cc3nnn(CCc4cccc(F)c4)c(=O)c3cc2OC2CCCN12 (stereo not drawn) [Example 1, 3-[2-(3-Fluorophenyl)ethyl]-6a,7,8,9-tetrahydro-3H-pyrrolo[2′,1′:2,3][1,3]oxazino[6,5-g][1,2,3]benzotriazine-4,11-dione] | 3 nM | 9% @ 3 μM | – | 24%^3 | –
3 | C#C[C@H](Cc1cc(F)cc(F)c1)n1nnc2cc3c(cc2c1=O)O[C@@H]1CCCN1C3=O [Example 16, (6aR)-3-[(2S)-1-(3,5-Difluorophenyl)but-3-yn-2-yl]-6a,7,8,9-tetrahydro-3H-pyrrolo[2′,1′:2,3][1,3]oxazino[6,5-g][1,2,3]benzotriazine-4,11-dione] | 3 nM | 1% @ 3 μM | – | 34%^3 | –
4 | C[C@H](Cn1ncnn1)n1nnc2cc3c(cc2c1=O)OC1CCCN1C3=O (stereo partly drawn) [Example 37A, 3-[(2R)-1-(2H-Tetrazol-2-yl)propan-2-yl]-6a,7,8,9-tetrahydro-3H-pyrrolo[2′,1′:2,3][1,3]oxazino[6,5-g][1,2,3]benzotriazine-4,11-dione] | 40 nM | – | – | 39%^3 | –
5 | O=C1c2cc3nnn(CCn4cccn4)c(=O)c3cc2OC2CCCN12 (stereo not drawn) [Example 36, 3-[2-(1H-Pyrazol-1-yl)ethyl]-6a,7,8,9-tetrahydro-3H-pyrrolo[2′,1′:2,3][1,3]oxazino[6,5-g][1,2,3]benzotriazine-4,11-dione] | 100 nM | 12% @ 3 μM | 18%^4 | – | –
6 | C#CCn1nnc2cc3c(cc2c1=O)OC1CCCN1C3=O (stereo not drawn) [Example 9, 3-Prop-2-yn-1-yl-6a,7,8,9-tetrahydro-3H-pyrrolo[2′,1′:2,3][1,3]oxazino[6,5-g][1,2,3]benzotriazine4,11-dione] | 140 nM | 11% @ 3 μM | 11%^4 | – | –
7 | C[C@H](CSC#N)n1nnc2cc3c(cc2c1=O)OC1CCCN1C3=O (stereo partly drawn) [Example 35, (2R)-2-(4,11-Dioxo-4,6a,7,8.9,11-hexahydro-3H-pyrrolo[2′,1′:2,3][1,3]oxazino[6,5-g][1,2,3]benzotriazin-3-yl)propyl thiocyanate] | 80 nM | – | – | 19%^3 | –
8 | N#CCn1nnc2cc3c(cc2c1=O)OC1CCCN1C3=O (stereo not drawn) [Example 10, (4,11-Dioxo-4,6a,7,8,9,11-hexahydro-3H-pyrrolo[2′,1′:2,3][1,3]oxazino[6,5-g][1,2,3]benzotriazin-3-yl)acetonitrile] | 190 nM | – | – | 12%^3 | 10% @ 10 μM
9 | C[C@H](Cn1ncnn1)n1nnc2cc3c(cc2c1=O)OC1COCCN1C3=O (stereo partly drawn) [Example 64, 3-[(2R)-1-(2H-Tetrazol-2-yl)propan-2-yl]-6a,7,9,10-tetrahydro-3H-[1,4]oxazino[3′,4′:2,3][1,3]oxazino[6,5-g][1,2,3]benzotriazine-4,12-dione] | 170 nM | – | – | 30%^3 | –
